Reference: ChEMBL document CHEMBL5233226 (Eur J Med Chem, 2020)

Legend:
Plasma kallikrein [1] = molecular target: T1, Plasma kallikrein (Homo sapiens, UniProt P03952); test: Inhibition of human plasma kallikrein usingPro-Phe-Arg-AMC as substrate incubated for 5 mins; type: single protein
Plasma kallikrein [2] = molecular target: T1, Plasma kallikrein; test: Inhibition of human plasma kallikrein incubated for 1 hrs
Coagulation factor XII [3] = molecular target: T2, Coagulation factor XII (Homo sapiens, UniProt P00748); test: Inhibition of human fXIIa incubated for 1 hrs
T2 sequence (P00748 whole entry): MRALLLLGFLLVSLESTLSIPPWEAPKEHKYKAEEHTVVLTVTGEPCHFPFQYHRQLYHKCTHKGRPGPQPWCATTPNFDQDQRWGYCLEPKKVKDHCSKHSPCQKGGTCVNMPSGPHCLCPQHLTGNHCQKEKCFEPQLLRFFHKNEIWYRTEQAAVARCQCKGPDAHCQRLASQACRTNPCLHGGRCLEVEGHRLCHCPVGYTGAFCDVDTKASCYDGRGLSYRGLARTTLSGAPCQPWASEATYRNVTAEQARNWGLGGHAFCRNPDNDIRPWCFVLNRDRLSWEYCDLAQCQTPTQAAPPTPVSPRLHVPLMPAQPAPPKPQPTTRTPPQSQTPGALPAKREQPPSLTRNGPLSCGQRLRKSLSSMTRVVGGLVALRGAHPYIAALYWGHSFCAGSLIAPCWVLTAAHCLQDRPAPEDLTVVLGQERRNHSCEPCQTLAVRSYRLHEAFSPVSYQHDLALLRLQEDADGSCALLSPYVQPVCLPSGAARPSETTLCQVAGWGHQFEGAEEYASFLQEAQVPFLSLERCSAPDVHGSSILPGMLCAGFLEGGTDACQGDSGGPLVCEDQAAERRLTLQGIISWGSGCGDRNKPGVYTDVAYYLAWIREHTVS

Plasma kallikrein [4] = molecular target: T1, Plasma kallikrein; test: Inhibition of human plasma kallikrein using H-D-Pro-Phe-Arg-p-nitroaniline as substrate assessed as inhibition constant
Plasma kallikrein [5] = molecular target: T1, Plasma kallikrein; test: Inhibition of plasma kallikrein (unknown origin)
Coagulation factor XI [6] = molecular target: T3, Coagulation factor XI (Homo sapiens, UniProt P03951); test: Inhibition of human fXIa incubated for 1 hrs
T3 sequence (P03951 19-387 limits assumed): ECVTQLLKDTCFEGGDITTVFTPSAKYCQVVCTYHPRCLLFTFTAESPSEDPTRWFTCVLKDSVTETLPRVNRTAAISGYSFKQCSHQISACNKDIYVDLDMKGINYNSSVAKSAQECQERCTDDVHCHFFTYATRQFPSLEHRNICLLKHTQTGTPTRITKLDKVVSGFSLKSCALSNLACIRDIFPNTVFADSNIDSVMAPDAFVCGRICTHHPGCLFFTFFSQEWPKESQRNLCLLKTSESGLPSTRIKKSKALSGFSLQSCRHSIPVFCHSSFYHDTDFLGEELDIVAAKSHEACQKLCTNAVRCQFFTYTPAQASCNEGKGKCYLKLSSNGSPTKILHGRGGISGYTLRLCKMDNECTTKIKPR
T3 sequence (P03951 388-625 limits assumed): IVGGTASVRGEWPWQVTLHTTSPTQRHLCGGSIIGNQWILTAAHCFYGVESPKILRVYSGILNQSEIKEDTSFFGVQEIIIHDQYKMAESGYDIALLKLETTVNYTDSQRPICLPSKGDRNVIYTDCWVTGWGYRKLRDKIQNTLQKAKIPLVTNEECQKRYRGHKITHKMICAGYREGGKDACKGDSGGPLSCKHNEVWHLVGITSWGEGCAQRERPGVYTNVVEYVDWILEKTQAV

Plasminogen = Plasminogen (Homo sapiens, UniProt P00747); test: Inhibition of plasmin (unknown origin)
Sequence of Plasminogen (P00747 97-580 limits assumed): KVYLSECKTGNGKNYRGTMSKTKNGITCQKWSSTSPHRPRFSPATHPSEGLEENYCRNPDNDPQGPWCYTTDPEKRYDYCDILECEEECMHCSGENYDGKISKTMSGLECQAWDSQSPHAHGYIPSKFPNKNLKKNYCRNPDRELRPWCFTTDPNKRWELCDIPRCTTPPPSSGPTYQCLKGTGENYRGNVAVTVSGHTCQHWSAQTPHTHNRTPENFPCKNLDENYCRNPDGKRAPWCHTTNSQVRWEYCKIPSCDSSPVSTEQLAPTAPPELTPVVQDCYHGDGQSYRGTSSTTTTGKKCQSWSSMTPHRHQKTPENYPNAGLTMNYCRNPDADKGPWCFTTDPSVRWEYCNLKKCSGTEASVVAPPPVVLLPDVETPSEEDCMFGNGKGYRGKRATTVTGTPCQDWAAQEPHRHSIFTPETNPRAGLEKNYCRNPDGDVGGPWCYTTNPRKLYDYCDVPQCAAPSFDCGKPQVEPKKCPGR
Sequence of Plasminogen (P00747 581-810 limits assumed): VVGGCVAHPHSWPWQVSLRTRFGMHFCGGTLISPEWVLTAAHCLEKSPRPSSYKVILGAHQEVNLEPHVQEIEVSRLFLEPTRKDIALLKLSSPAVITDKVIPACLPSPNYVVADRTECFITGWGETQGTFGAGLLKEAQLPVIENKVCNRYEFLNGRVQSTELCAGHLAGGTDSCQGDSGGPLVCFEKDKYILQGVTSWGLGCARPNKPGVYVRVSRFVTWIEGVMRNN

[7] = molecular target: Urokinase-type plasminogen activator (Homo sapiens, UniProt P00749); test: Inhibition of Urokinase (unknown origin)
Coagulation factor XI [8] = molecular target: T3, Coagulation factor XI; test: Inhibition of human fXIa
Kallikrein-1 [9] = molecular target: T4, Kallikrein-1 (Homo sapiens, UniProt P06870); test: Inhibition of human KLK1
T4 sequence (P06870 whole entry): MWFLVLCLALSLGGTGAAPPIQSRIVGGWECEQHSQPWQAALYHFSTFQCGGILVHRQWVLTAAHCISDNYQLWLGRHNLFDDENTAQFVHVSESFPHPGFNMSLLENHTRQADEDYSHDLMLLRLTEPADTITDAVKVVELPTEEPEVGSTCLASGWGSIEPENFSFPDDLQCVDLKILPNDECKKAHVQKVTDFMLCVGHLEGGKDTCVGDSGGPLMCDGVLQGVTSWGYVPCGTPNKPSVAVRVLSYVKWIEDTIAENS

Prothrombin = Prothrombin (Homo sapiens, UniProt P00734); test: Inhibition of thrombin (unknown origin)
Kallikrein-1 [10] = molecular target: T4, Kallikrein-1; test: Inhibition of KLK1 (unknown origin)
Trypsin = Trypsin (Homo sapiens, UniProt P07477+P07478+P35030); test: Inhibition of trypsin (unknown origin); type: protein assay
Coagulation factor X = Coagulation factor X (Homo sapiens, UniProt P00742); test: Inhibition of fXa (unknown origin)
Sequence of Coagulation factor X (P00742 41-179 limits assumed): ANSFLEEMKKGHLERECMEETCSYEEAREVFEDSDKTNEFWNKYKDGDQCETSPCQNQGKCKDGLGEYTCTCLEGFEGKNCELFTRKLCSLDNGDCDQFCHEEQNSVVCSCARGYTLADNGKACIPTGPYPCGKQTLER
Sequence of Coagulation factor X (P00742 235-488 limits assumed): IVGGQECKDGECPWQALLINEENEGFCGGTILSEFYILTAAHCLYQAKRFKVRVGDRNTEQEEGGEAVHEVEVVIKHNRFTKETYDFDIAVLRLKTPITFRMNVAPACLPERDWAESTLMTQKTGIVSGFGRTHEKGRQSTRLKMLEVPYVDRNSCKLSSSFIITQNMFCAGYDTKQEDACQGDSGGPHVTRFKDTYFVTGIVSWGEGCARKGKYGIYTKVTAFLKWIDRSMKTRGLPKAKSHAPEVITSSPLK

Coagulation factor XI [11] = molecular target: T3, Coagulation factor XI; test: Inhibition of fXIa (unknown origin)
Coagulation factor XII [12] = molecular target: T2, Coagulation factor XII; test: Inhibition of fXIIa (unknown origin)
Plasma kallikrein [13] = molecular target: T1, Plasma kallikrein; test: Inhibition of human plasma kallikrein using H-DPro-Phe-Arg-AFC as substrate
Kallikrein-1 [14] = molecular target: T4, Kallikrein-1; test: Inhibition of human KLK1 using H-DVal-Leu-Arg-AFC as substrate

T1 sequence (P03952 20-390 limits assumed): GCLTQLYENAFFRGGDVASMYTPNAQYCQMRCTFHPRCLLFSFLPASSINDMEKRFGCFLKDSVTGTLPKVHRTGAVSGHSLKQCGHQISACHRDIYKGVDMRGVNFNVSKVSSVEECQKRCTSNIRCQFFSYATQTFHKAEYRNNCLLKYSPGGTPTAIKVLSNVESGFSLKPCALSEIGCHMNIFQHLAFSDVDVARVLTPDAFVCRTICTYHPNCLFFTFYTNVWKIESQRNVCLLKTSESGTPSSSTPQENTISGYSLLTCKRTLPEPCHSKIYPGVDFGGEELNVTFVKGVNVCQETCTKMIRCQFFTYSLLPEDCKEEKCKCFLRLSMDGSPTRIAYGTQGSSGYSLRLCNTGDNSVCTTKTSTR
T1 sequence (P03952 391-638 limits assumed): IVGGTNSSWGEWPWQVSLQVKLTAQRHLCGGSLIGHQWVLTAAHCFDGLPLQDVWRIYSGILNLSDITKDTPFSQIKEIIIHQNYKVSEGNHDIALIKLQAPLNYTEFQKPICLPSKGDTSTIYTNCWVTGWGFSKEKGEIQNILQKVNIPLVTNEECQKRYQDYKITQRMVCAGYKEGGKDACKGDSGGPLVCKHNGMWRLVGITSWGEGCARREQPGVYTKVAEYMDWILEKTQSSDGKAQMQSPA

## Cc1cc(N)nc(C)c1CNc1ncnc2nc(Cc3ccc4ncc(C(F)(F)F)cc4c3)[nH]c12
Plasma kallikrein [1]
  IC50: < 0.1 µM

## Cc1nc(N)cc2c1CNC(=O)c1cnn(c1)Cc1ccc(Cn3cccn3)cc1OCCC/C=C\CCO2
Plasma kallikrein [2]
  IC50: 0.002 µM
Coagulation factor XII [3]
  IC50: 3.6 µM

## NCc1cccc(-n2nc(C(F)(F)F)cc2C(=O)Nc2cc(C(OCC3CC3)c3ccccc3O)ccc2F)c1 (stereo not drawn)
Plasma kallikrein [4]
  IC50: 0.1 µM

## N=C(N)c1cccc(-n2nc(C(F)(F)F)cc2C(=O)Nc2cc(C(NCC3CC3)c3ccccc3)ccc2F)c1 (stereo not drawn)
Plasma kallikrein [4]
  IC50: 0.1 µM

## Fc1c(CNc2ncnc3nc(Cc4ccc5ncc(Cl)cc5c4)[nH]c23)ccc2[nH]cc(Cl)c12
Plasma kallikrein [1]
  IC50: < 0.1 µM

## N=C(N)NCCCC[C@H](NC(=O)C1CCC(CN)CC1)C(=O)Nc1ccc(C(=O)O)cc1 (stereo partly drawn)
Plasma kallikrein [5]
  IC50: 14 µM

## CO[C@@H]1C[C@H](C(=O)Nc2cc(C(N)(CCC3CC3)c3cccc(C#N)c3)ccc2F)N(C(=O)Nc2ccc(Cl)cn2)C1 (stereo partly drawn)
Plasma kallikrein [4]
  IC50: < 0.05 µM

## Cc1cc(N)nc(C)c1CNC(=O)c1cnn(Cc2ccc(Cn3cccn3)cc2)c1
Plasma kallikrein [2]
  IC50: 0.0024 µM
Coagulation factor XI [6]
  IC50: 106 µM

## CC(C)COC(=O)c1ccc(NC(=O)[C@H](CCCNC(=N)N)NC(=O)C2CCC(CN)CC2)cc1 (stereo partly drawn)
Plasma kallikrein [5]
  IC50: 15 µM
Plasminogen
  IC50: 370 µM

## CC(=O)c1ccc(NC(=O)[C@H](Cc2ccccc2)NC(=O)C2CCC(CN)CC2)cc1 (stereo partly drawn)
Plasma kallikrein [5]
  IC50: 0.85 µM
Plasminogen
  IC50: 21 µM
[7]
  IC50: 58 µM

## Cc1cc(C)n(Cc2ccc(Cn3cc(C(=O)NCc4c(C)cc(N)nc4C)nn3)cc2)n1
Plasma kallikrein [5]
  IC50: 0.0029 µM
Coagulation factor XI [8]
  IC50: > 10 µM
Kallikrein-1 [9]
  IC50: > 40 µM

## COCc1nn(Cc2ccc(Cn3cc(F)ccc3=O)cc2)cc1C(=O)NCc1nccc(OC)c1F
Plasminogen
  IC50: > 40 µM
Prothrombin
  IC50: > 40 µM
Kallikrein-1 [10]
  IC50: > 40 µM
Trypsin
  IC50: > 40 µM

## NCc1cccc(-n2nc(C(F)(F)F)cc2C(=O)Nc2cccc(C(OCC3CC3)c3ccccc3)c2)c1 (stereo not drawn)
Plasma kallikrein [4]
  IC50: 0.1 µM
  Ki: 0.0001 µM

## COC(=O)c1ccc(NC(=O)[C@H](CCCCNC(=N)N)NC(=O)C2CCC(CN)CC2)cc1 (stereo partly drawn)
Plasma kallikrein [5]
  IC50: 18 µM

## CCCOC(c1ccccc1)c1cccc(NC(=O)c2cc(C(F)(F)F)nn2-c2cccc(CN)c2)c1 (stereo not drawn)
Plasma kallikrein [4]
  IC50: > 50 µM

## CCO[C@@H]1C[C@H](C(=O)Nc2cc(C(N)(CCC3CC3)c3ccccn3)ccc2F)N(C(=O)Nc2ccc(Cl)cc2)C1 (stereo partly drawn)
Plasma kallikrein [4]
  IC50: < 0.05 µM

## CO[C@@H]1C[C@H](C(=O)Nc2cc(C(N)(CCC3CC3)c3ccccn3)ccc2F)N(C(=O)Nc2ccc(Cl)cn2)C1 (stereo partly drawn)
Plasma kallikrein [4]
  IC50: < 0.05 µM

## Nc1nccc2ccc(-n3nc(C(F)(F)F)cc3C(=O)Nc3cc(C(NCC4CC4)c4ccccc4)ccc3F)cc12 (stereo not drawn)
Plasma kallikrein [4]
  IC50: 0.1 µM

## CS(=O)(=O)c1cc(Cc2cc(C(=O)NCc3cnc4[nH]cc(Cl)c4c3)ccn2)ccc1Cn1ccccc1=O
Plasma kallikrein [1]
  IC50: < 0.1 µM

## N=C(N)c1ccc(CNC(=O)c2cnn(Cc3ccccc3)c2)cc1
Plasma kallikrein [5]
  IC50: 0.09 µM
Prothrombin
  IC50: > 10 µM
Coagulation factor X
  IC50: > 10 µM
Coagulation factor XI [11]
  IC50: > 10 µM
Coagulation factor XII [12]
  IC50: > 10 µM

## CCOc1ccc(C[C@@H](NC(=O)c2ccccc2)C(=O)N[C@H](C(=O)NCc2ccc(CN)cc2)[C@H](O)c2ccccc2)cc1
Plasma kallikrein [13]
  IC50: 0.02 µM
Kallikrein-1 [14]
  IC50: 7.2 µM

## NCc1cccc(-n2nc(C(F)(F)F)cc2C(=O)Nc2cccc(C(O)c3ccccc3)c2)c1 (stereo not drawn)
Plasma kallikrein [4]
  IC50: > 50 µM
